Usually IC50 stands for the midpoint of a concentration-inhibition curve. Broadly, the logD is the decadic logarithm of the distribution of all forms, ionised or not, between an organic phase and buffer at a given pH. Low values mean a more hydrophilic compound, high ones a more lipophilic compound. The pKa is the pH at which an ionisable group is half protonated.

Bounds are passed on as bounds.

The target of data set [1] is T1, Pyroglutamylated RF-amide peptide receptor (Homo sapiens, UniProt Q96P65).
T1 sequence (Q96P65 whole entry): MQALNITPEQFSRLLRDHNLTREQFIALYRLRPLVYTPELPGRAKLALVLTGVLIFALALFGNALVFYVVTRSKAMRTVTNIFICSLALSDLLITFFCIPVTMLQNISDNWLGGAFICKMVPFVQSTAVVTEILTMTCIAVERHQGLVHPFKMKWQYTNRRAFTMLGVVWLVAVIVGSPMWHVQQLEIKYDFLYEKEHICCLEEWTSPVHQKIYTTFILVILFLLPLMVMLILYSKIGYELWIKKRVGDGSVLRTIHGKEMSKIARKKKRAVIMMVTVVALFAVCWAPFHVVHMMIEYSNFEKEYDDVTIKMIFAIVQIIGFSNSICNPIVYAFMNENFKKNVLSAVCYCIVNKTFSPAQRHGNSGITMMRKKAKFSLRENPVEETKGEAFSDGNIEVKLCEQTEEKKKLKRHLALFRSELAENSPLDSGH
In words: Antagonist activity at human GPR103 receptor assessed as inhibition of inositol-1-phosphate production by cell-based assay. Format: functional.

The nature of data set [2]: Distribution coefficient, log D of the compound at pH 7.4. The following applies: octanol/water.
In data set [3] the target is T1, Pyroglutamylated RF-amide peptide receptor. Description: Displacement of [125I]-QRFP43 from human GPR103 receptor overexpressed in HEK membranes after 90 mins by liquid scintillation counting. Format: cell membranes. For orientation: Displacement assays read how much labelled ligand stays bound in the presence of the test substance.
Data set [4] can be described thus: Dissociation constant, pKa of the compound. It counts as physicochemical.

Regarding `COc1ccc(NC(=N)c2cc(C)cs2)cc1CSC1CCCC1`, the IC50 in data set [1] is 63.1 nM; in data set [3], 100 nM. Further, the logD in data set [2] is 3.7.

`COc1ccc(NC(=N)Cc2ccccc2)cc1CSC1CCCC1`: in data set [1], the IC50 was 6310 nM. For the same molecule, the logD in data set [2] was determined as 2.3.

`COc1ccc(NC(=N)c2ccccc2)cc1CSc1ccccc1`: the IC50 in data set [1] was 1580 nM; in data set [3] it was 7940 nM. Also, the logD in data set [2] was found to be 2.6.

Consider `CCC(=N)Nc1ccc(OC)c(CSC2CCCC2)c1`, for which the IC50 in data set [1] is more than 39800 nM. The logD in data set [2] came out at 1.2.

Take `COc1ccc(Cl)cc1NS(=O)(=O)c1ccc(OC)c2c1CC[C@@H](N(C)C)C2`: the IC50 in data set [1] and in data set [3] was 79.4 nM each time. This molecule gave a pKa in data set [4] of 10.5. The same molecule yielded a logD in data set [2] of 2.3.

As to `C/N=C(/Nc1ccc(OC)c(CSC2CCCC2)c1)c1cccs1`, the IC50 was 251 nM in data set [1] and 631 nM in data set [3]. Besides, the logD in data set [2] was found to be 3.1.

As for `COc1ccc(NC(=N)c2ccccc2)cc1C[S+]([O-])C1CCCC1` (centres undefined), in data set [1], the IC50 was more than 39800 nM. The logD in data set [2] stood at 0.8.

With `COc1ccc(NC(=N)c2ccc(Cl)cc2)cc1CSC1CCCC1`, the IC50 in data set [1] is 12.6 nM; in data set [3], 39.8 nM. In data set [2], this molecule had a logD of 3.7.

Consider `COc1ccc(C(=N)Nc2ccccc2)cc1CSC1CCCC1`, for which the figures for the IC50 in data set [1] and in data set [3] were 1000 nM and 3980 nM, respectively. The molecule further came in with a logD in data set [2] of 2.8.

Consider `COc1ccc(NC(=N)c2cc(Br)cs2)cc1CSC1CCCC1`, for which the IC50 in data set [1] is 158 nM. For the same molecule, the logD in data set [2] was determined as 4.7.

On to `COc1ccc(NC(=N)c2ccccc2)cc1CNC(=O)C1CCCC1`, for which the IC50 was 2510 nM in data set [1] and 7940 nM in data set [3]. For the same molecule, the logD in data set [2] came to 1.1.

Turning to `COc1ccc(NC(=N)c2ccc(Br)s2)cc1CSC1CCCC1`, the IC50 was 20 nM in data set [1] and 126 nM in data set [3]. In data set [2], this molecule gave a logD of more than 5.

On to `C/N=C(\c1cccs1)N(C)c1ccc(OC)c(CSC2CCCC2)c1`, for which the IC50 in data set [1] was more than 39800 nM. Further, the logD in data set [2] was 1.9.

`COc1ccc(NC(=N)c2cccs2)cc1COC1CCCC1`: the IC50 in data set [1] was 2510 nM; in data set [3], 10000 nM. The molecule also gave a logD in data set [2] of 2.7.

In the case of `COc1ccc(NC(=N)c2cccs2)cc1CSC1CCCC1`, the IC50 in data set [1] is 50.1 nM; in data set [3], 158 nM. In data set [4], this molecule yielded a pKa of 8.1. In data set [2], this molecule showed a logD of 3.3.

Turning to `N=C(Nc1cccc(CSC2CCCC2)c1)c1cccs1`, the results for the IC50 in data set [1] and in data set [3] were 794 nM and 2510 nM, respectively. Further, the logD in data set [2] is 3.8.

As to `COc1ccc(NC(=N)c2ccccc2)cc1CSC1CCCC1`, the IC50 is 20 nM in data set [1] and 25.1 nM in data set [3]. Further, the logD in data set [2] amounted to 2.5.

With `N=C(Nc1ccc(F)c(CSC2CCCC2)c1)c1cccs1`, the IC50 in data set [1] was 501 nM; in data set [3], 1260 nM. For the same molecule, the log distribution coefficient (logD) in data set [2] is more than 3.9.

On to `COc1ccc(NC(=N)c2ccccc2)cc1CCC1CCCC1`, for which the IC50 is 316 nM in data set [1] and 200 nM in data set [3]. For the same molecule, the logD in data set [2] stood at 3.8.

As for `Cc1ccc(NC(=N)c2cccs2)cc1CSC1CCCC1`, the IC50 was 1580 nM in data set [1] and 10000 nM in data set [3]. For the same molecule, the logD in data set [2] is more than 3.8.

Turning to `COc1ccc(NC(=N)c2ccncc2)cc1CSC1CCCC1`, the IC50 in data set [1] is 1580 nM. Further, the logD in data set [2] turned out to be 2.9.

As for `COc1ccc(Nc2ccccn2)cc1CSC1CCCC1`, the IC50 is 12600 nM in data set [1] and more than 31600 nM in data set [3]. The molecule also had a logD in data set [2] of 4.6.

Consider `COc1ccc(NC(=N)c2ccsc2)cc1CSC1CCCC1`, for which the IC50 was 100 nM in data set [1] and 126 nM in data set [3]. In data set [2], this molecule gave a logD of 2.5.

For the molecule `N=C(Nc1ccc(OC(F)(F)F)c(CSC2CCCC2)c1)c1cccs1`, the IC50 in data set [1] was 2000 nM. Further, the logD in data set [2] was more than 4.8.

As to `Cc1cc2nc(NC(=N)N)nc(C)c2cc1C`, the IC50 was 2510 nM in data set [1] and 5010 nM in data set [3]. The same molecule yielded a pKa in data set [4] of 9.3. Besides, the logD in data set [2] was less than 0.6.

Take `N=C(Nc1ccc(Cl)c(CSC2CCCC2)c1)c1cccs1`: the IC50 in data set [1] is 1000 nM; in data set [3], 3980 nM. The molecule also showed a logD in data set [2] of 3.9.

For `COc1ccc(NC(=N)c2cccnc2)cc1CSC1CCCC1`, the IC50 is 251 nM in data set [1] and 501 nM in data set [3]. This molecule also had a logD in data set [2] of 2.6.

Regarding `COc1ccc(NC(=O)c2cccs2)cc1CSC1CCCC1`, the values for the IC50 in data set [1] and in data set [3] were 7940 nM and more than 31600 nM, respectively. In data set [2], this molecule had a logD of more than 4.2.

Consider `COc1ccc(NC(=N)c2ccccc2)cc1CS(=O)(=O)C1CCCC1`, for which the IC50 in data set [1] was 31600 nM.

Consider `COc1ccc(NC(=N)c2nccs2)cc1CSC1CCCC1`, for which the IC50 is 2510 nM in data set [1] and 25100 nM in data set [3]. Besides, the logD in data set [2] was found to be 4.

For the origin of these results see ChEMBL document CHEMBL3286355, “New Hits as Antagonists of GPR103 Identified by HTS” (ACS Med Chem Lett, 2014).
